Data as given in the kinase profiling compilation of Christmann-Franck et al. (2016).

Tests used:
Experiment in all cases: radiometric filter-binding kinase assay, Kinase HotSpot
Details in all cases: compound 0.5 µM; ATP 10 µM
[1] = target: ACVRL1 (human) (UniProt P37023)
[2] = target: BTK (human) (UniProt Q06187)
[3] = target: CAMK2A (human) (UniProt Q9UQM7)
[4] = target: CLK3 (human) (UniProt P49761)
[5] = target: CSNK1D (human) (UniProt P48730)
[6] = target: CSNK1E (human) (UniProt P49674)
[7] = target: CSNK1G1 (human) (UniProt Q9HCP0)
[8] = target: DDR2 (human) (UniProt Q16832)
DDR2 (human), sequence (Q16832 whole entry, looked up): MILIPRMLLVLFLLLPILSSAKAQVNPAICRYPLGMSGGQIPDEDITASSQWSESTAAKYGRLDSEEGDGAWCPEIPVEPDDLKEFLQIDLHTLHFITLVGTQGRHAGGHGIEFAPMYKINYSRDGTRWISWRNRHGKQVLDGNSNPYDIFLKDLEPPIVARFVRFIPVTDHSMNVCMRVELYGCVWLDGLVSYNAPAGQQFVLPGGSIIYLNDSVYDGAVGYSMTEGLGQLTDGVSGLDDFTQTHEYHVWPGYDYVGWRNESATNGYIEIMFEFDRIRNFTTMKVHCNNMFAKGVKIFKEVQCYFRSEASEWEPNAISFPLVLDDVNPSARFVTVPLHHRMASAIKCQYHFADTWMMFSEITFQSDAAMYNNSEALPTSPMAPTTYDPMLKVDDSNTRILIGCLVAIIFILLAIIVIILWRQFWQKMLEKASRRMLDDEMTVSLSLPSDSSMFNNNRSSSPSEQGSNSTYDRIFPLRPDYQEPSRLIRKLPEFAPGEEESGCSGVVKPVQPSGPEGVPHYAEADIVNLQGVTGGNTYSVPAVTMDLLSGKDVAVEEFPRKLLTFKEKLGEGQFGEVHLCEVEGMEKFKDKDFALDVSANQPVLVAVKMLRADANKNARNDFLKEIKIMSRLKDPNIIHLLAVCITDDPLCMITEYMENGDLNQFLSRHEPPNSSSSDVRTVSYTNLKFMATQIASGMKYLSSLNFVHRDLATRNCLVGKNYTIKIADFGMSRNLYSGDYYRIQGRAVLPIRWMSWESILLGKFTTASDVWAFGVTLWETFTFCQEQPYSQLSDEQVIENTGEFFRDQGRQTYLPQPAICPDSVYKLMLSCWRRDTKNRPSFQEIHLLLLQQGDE

[9] = target: DYRK3 (human) (UniProt O43781)
[10] = target: EPHA1 (human) (UniProt P21709)
[11] = target: EPHB3 (human) (UniProt P54753)
[12] = target: FGFR2 (human) (UniProt P21802)
[13] = target: FGFR3 (human) (UniProt P22607)
[14] = target: GSK3A (human) (UniProt P49840)
[15] = target: JAK2 JH1 JH2 (human) (UniProt O60674)
[16] = target: MAP3K3 (human) (UniProt Q99759)
[17] = target: MAP4K2 (human) (UniProt Q12851)
MAP4K2 (human), sequence (Q12851 whole entry, looked up): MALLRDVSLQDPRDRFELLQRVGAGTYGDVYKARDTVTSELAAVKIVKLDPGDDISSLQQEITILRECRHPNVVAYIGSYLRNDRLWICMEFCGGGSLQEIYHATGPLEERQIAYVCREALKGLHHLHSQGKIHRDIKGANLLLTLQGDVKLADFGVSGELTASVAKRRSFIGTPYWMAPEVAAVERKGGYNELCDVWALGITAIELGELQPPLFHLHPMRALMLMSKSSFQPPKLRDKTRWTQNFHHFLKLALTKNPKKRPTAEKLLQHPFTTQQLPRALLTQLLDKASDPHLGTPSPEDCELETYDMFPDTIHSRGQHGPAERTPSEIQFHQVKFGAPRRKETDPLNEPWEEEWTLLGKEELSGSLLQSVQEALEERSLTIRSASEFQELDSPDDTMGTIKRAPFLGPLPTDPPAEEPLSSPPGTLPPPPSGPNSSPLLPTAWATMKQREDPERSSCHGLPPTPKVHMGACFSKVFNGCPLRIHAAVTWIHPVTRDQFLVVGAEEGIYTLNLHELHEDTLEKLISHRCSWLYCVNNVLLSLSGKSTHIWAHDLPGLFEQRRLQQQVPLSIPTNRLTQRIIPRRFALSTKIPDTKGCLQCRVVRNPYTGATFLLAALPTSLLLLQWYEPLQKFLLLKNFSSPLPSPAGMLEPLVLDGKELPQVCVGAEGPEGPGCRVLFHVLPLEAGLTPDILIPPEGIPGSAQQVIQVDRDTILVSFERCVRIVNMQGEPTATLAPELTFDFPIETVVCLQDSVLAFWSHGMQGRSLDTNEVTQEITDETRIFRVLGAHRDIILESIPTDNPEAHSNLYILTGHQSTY

[18] = target: MATK (human) (UniProt P42679)
[19] = target: MERTK (human) (UniProt Q12866)
[20] = target: MST1R (human) (UniProt Q04912)
[21] = target: MUSK (human) (UniProt O15146)
MUSK (human), sequence (O15146 whole entry, looked up): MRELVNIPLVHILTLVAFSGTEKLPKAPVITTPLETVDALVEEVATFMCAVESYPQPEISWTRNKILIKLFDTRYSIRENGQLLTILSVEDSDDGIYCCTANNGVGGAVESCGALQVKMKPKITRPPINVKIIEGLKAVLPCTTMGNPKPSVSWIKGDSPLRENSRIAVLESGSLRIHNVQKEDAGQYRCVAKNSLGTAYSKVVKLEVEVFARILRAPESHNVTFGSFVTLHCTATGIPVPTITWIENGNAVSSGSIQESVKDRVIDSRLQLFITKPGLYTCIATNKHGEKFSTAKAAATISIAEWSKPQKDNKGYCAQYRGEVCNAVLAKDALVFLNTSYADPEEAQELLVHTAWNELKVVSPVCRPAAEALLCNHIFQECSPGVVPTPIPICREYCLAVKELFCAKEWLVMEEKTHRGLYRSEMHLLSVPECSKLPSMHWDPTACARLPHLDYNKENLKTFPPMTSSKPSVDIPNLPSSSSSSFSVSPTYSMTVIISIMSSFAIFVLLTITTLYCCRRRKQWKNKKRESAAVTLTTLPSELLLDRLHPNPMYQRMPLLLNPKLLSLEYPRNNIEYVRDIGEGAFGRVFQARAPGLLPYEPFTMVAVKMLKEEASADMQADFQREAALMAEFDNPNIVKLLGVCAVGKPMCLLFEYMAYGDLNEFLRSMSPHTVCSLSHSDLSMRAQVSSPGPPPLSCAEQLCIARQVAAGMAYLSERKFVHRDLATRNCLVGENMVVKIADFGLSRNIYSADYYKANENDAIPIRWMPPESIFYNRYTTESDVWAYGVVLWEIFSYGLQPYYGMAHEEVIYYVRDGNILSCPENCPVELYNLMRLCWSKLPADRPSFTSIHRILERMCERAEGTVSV

[22] = target: NEK11 (human) (UniProt Q8NG66)
[23] = target: NEK4 (human) (UniProt P51957)
NEK4 (human), sequence (P51957 whole entry, looked up): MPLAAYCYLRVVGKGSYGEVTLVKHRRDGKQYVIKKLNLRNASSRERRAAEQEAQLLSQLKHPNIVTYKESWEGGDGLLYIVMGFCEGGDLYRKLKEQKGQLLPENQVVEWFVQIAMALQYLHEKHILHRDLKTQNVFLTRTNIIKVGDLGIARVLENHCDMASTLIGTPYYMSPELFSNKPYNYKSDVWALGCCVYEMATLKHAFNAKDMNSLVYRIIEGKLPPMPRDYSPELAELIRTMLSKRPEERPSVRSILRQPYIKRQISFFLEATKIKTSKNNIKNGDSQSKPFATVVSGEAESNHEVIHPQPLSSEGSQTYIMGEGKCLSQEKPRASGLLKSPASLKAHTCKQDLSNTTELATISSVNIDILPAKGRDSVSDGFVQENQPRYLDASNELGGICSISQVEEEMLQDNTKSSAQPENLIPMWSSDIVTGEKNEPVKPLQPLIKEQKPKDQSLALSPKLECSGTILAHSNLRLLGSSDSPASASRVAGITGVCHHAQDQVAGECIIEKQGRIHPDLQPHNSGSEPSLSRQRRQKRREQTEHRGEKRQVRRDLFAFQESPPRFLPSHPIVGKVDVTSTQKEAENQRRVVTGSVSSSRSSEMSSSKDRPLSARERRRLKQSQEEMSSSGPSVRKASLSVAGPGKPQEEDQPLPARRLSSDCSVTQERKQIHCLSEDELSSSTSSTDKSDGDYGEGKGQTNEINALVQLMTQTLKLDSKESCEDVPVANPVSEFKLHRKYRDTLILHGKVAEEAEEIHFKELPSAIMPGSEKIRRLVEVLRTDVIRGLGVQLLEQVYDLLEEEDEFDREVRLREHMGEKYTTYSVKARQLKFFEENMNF

[24] = target: NTRK2 (human) (UniProt Q16620)
[25] = target: NUAK1 (human) (UniProt O60285)
NUAK1 (human), sequence (O60285 whole entry, looked up): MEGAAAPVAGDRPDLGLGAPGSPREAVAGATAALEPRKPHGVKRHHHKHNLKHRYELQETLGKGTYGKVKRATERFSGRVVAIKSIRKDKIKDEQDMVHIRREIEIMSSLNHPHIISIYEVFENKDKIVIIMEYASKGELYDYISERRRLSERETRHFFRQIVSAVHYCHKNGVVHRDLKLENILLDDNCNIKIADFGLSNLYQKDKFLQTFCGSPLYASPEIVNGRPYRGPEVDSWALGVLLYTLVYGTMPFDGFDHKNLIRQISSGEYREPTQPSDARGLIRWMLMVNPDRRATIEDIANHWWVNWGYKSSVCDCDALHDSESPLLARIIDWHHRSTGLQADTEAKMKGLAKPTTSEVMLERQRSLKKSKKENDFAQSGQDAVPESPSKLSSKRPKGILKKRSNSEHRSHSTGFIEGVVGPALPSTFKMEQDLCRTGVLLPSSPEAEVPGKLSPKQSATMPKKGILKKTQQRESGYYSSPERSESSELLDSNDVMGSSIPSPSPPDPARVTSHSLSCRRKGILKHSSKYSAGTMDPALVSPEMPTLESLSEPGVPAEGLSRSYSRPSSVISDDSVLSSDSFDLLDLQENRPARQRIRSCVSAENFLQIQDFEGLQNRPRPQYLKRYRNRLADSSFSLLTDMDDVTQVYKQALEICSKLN

[26] = target: PHKG1 (human) (UniProt Q16816)
[27] = target: PIM1 (human) (UniProt P11309)
[28] = target: PIM3 (human) (UniProt Q86V86)
[29] = target: PLK1 (human) (UniProt P53350)
[30] = target: PLK2 (human) (UniProt Q9NYY3)
PLK2 (human), sequence (Q9NYY3 whole entry, looked up): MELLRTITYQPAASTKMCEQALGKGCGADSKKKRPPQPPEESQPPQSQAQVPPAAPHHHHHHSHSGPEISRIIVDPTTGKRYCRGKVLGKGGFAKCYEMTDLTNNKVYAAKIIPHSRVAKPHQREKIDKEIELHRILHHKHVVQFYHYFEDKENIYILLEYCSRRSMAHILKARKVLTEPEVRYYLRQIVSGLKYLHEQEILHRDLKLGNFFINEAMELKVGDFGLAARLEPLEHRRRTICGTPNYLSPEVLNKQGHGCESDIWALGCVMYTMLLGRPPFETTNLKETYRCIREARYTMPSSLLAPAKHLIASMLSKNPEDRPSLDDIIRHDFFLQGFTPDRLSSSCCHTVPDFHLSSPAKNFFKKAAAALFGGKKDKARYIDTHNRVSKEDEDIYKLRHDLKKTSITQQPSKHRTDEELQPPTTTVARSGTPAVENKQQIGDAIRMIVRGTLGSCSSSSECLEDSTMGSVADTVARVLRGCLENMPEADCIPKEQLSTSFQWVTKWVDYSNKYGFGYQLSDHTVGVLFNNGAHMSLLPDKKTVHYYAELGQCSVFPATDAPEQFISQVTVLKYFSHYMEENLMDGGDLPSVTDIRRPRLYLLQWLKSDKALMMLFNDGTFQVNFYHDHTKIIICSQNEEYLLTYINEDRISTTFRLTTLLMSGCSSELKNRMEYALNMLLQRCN

[31] = target: PRKX (human) (UniProt P51817)
[32] = target: SGK3 (human) (UniProt Q96BR1)
[33] = target: SIK2 (human) (UniProt Q9H0K1)
[34] = target: STK11 (human) (UniProt Q15831)
[35] = target: STK17A (human) (UniProt Q9UEE5)
[36] = target: TSSK2 (human) (UniProt Q96PF2)
[37] = target: TYRO3 (human) (UniProt Q06418)
[38] = target: WNK2 (human) (UniProt Q9Y3S1)
[39] = target: EPHA8 (human) (UniProt P29322)
[40] = target: HCK (human) (UniProt P08631)
[41] = target: CSNK1G3 (human) (UniProt Q9Y6M4)

Q: What does the source list for `COc1ccc(COc2ccc(Cc3cnc(N)nc3N)cc2OC)cc1`?
A: residual activity [1]: 101%; residual activity [2]: 104%; residual activity [3]: 105%; residual activity [4]: 98.3%; residual activity [5]: 98.5%; residual activity [6]: 97.1%; residual activity [7]: 92.7%; residual activity [8]: 99.6%; residual activity [9]: 108%; residual activity [10]: 85.7%; residual activity [11]: 91.8%; residual activity [12]: 102%; residual activity [13]: 105%; residual activity [14]: 108%; residual activity [15]: 89.2%; residual activity [16]: 97.8%; residual activity [17]: 120%; residual activity [18]: 94.8%; residual activity [19]: 90.3%; residual activity [20]: 104%; residual activity [21]: 102%; residual activity [22]: 103%; residual activity [23]: 92.2%; residual activity [24]: 31.2%; residual activity [25]: 106%; residual activity [26]: 95.3%; residual activity [27]: 104%; residual activity [28]: 95.9%; residual activity [29]: 97.1%; residual activity [30]: 116%; residual activity [31]: 105%; residual activity [32]: 105%; residual activity [33]: 98.6%; residual activity [34]: 103%; residual activity [35]: 102%; residual activity [36]: 109%; residual activity [37]: 110%; residual activity [38]: 94.6%

Q: Which results are given for `CCN(CC)CCNC(=O)c1c(C)[nH]c(/C=C2\C(=O)Nc3ccc(F)cc32)c1C`?
A: residual activity [1]: 112%; residual activity [2]: 50.2%; residual activity [3]: 14.5%; residual activity [4]: 105%; residual activity [5]: 31.8%; residual activity [6]: 46.9%; residual activity [8]: 154%; residual activity [9]: 58.2%; residual activity [10]: 95.1%; residual activity [39]: 92.1%; residual activity [11]: 77.4%; residual activity [12]: 50.5%; residual activity [13]: 39.7%; residual activity [14]: 85.5%; residual activity [40]: 40%; residual activity [15]: 88.8%; residual activity [16]: 42%; residual activity [17]: 34.4%; residual activity [18]: 88.8%; residual activity [19]: 39.8%; residual activity [20]: 92%; residual activity [21]: 51.3%; residual activity [22]: 106%; residual activity [23]: 94.1%; residual activity [24]: 9.78%; residual activity [25]: 2.75%; residual activity [26]: 5.12%; residual activity [27]: 94.4%; residual activity [28]: 56.8%; residual activity [29]: 96.4%; residual activity [30]: 99.2%; residual activity [31]: 105%; residual activity [32]: 101%; residual activity [33]: 27.8%; residual activity [34]: 97.2%; residual activity [35]: 26.7%; residual activity [36]: 72.9%; residual activity [37]: 28.3%; residual activity [38]: 100%

Q: Which results are given for `COc1cc2ncnc(Nc3cccc(Cl)c3)c2cc1OC`?
A: residual activity [1]: 96.4%; residual activity [2]: 76.7%; residual activity [3]: 98.2%; residual activity [4]: 90.5%; residual activity [5]: 100%; residual activity [6]: 75.3%; residual activity [7]: 99.9%; residual activity [41]: 92.4%; residual activity [8]: 99.2%; residual activity [9]: 96.3%; residual activity [10]: 81.7%; residual activity [39]: 81.5%; residual activity [11]: 99.1%; residual activity [12]: 97.5%; residual activity [13]: 88.5%; residual activity [14]: 104%; residual activity [40]: 61.8%; residual activity [15]: 97.4%; residual activity [16]: 88.3%; residual activity [17]: 98.1%; residual activity [18]: 103%; residual activity [19]: 76.9%; residual activity [20]: 87.8%; residual activity [21]: 88.3%; residual activity [22]: 96.9%; residual activity [23]: 87.5%; residual activity [24]: 93.3%; residual activity [25]: 75.8%; residual activity [26]: 88.9%; residual activity [27]: 91.5%; residual activity [28]: 99.4%; residual activity [29]: 105%; residual activity [30]: 102%; residual activity [31]: 92.5%; residual activity [32]: 90.9%; residual activity [33]: 98.7%; residual activity [34]: 96.8%; residual activity [35]: 95.4%; residual activity [36]: 94.8%; residual activity [37]: 96.7%; residual activity [38]: 98.6%
